The values that follow come from paper PMC10067855, “Sialidases and fucosidases of Akkermansia muciniphila are crucial for growth on mucin and nutrient sharing with mucus-associated gut bacteria” (Nature Communications, 2023).

Assay [1] deals with T1, AmGH181 (Akkermansia muciniphila, UniProt B2ULI1).
T1 sequence (B2ULI1 23-595): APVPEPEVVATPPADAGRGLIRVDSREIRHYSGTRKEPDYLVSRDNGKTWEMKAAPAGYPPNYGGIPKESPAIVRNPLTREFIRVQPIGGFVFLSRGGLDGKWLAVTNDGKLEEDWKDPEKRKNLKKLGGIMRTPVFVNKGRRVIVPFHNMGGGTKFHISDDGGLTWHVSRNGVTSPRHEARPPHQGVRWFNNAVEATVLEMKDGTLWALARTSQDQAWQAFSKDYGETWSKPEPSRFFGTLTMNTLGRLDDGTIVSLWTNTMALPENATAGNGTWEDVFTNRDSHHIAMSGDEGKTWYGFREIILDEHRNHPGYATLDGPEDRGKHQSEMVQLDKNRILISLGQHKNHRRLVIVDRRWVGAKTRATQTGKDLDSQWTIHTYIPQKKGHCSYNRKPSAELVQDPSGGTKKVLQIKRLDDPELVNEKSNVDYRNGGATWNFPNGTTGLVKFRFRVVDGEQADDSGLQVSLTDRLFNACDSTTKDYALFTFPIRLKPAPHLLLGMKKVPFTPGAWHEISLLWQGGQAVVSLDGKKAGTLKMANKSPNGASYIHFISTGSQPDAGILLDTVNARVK
More on the design: gene Amuc_1547.

In a further assay the target is T2, AmGH33B (Akkermansia muciniphila, UniProt B2UN42).
T2 construct: gene Amuc_1835; mature peptide lacking the signal peptide
T2 sequence (B2UN42 19-674): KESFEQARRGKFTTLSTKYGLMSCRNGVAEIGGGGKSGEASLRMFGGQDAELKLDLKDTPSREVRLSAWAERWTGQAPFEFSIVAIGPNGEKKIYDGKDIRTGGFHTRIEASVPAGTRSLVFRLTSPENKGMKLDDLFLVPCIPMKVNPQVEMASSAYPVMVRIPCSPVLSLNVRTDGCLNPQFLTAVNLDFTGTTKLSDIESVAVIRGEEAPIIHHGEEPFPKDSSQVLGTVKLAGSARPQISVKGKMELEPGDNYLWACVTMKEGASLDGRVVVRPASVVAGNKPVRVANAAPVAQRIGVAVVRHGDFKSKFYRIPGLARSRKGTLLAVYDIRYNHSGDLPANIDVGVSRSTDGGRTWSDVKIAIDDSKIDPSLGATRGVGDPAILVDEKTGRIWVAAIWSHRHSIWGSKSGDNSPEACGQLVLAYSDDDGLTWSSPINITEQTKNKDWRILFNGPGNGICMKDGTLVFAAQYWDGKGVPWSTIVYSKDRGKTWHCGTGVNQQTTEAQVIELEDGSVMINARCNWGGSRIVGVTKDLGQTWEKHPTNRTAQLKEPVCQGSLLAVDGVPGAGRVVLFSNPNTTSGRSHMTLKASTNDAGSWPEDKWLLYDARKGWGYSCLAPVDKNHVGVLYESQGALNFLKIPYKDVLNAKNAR
The experiment in a line: inhibition of 4MU-Neu5Ac hydrolysis, fluorescence. Format: biochemical.

The target of a further assay is T3, AmGH33A (Akkermansia muciniphila, UniProt B2UPI5).
T3 construct: gene Amuc_0625; mature peptide lacking the signal peptide
T3 sequence (B2UPI5 39-419): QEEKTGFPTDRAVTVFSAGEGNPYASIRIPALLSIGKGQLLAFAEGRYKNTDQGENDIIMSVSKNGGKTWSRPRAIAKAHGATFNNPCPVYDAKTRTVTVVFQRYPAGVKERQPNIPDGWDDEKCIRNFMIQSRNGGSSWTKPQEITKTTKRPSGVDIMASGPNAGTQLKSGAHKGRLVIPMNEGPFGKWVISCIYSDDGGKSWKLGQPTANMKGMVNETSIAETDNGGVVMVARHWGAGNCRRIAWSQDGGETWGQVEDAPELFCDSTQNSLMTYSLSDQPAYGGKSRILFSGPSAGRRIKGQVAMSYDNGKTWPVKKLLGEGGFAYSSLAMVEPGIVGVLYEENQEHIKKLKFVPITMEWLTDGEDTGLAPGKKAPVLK
The experiment in a line: inhibition of 4MU-Neu5Ac hydrolysis, fluorescence. Format: biochemical.

In assay [2] the target is T1, AmGH181. The experiment in a line: X-ray crystal structure; also inhibition of 4MU-Neu5Ac hydrolysis. It counts as biochemical. More on the design: gene Amuc_1547; mature peptide lacking the signal peptide. The text has this:
X-ray crystal structure; also inhibition of 4MU-Neu5Ac hydrolysis on AmGH181 | three structures of AmGH181: in ligand free form, bound with the transition-state inhibitor DANA

Usually IC50 stands for the concentration that inhibits the measured activity by half.

With `CC(=O)N[C@H]1C(O)O[C@H](CO)[C@H](O)[C@@H]1O[C@@H]1O[C@H](CO)[C@H](O)[C@H](O)[C@H]1O` (stereo partly shown) [GNB, Galacto-N-biose], on AmGH181 [1], the “X-ray crystal structure (ternary with DANA)” value is “bound to both the T-antigen disaccharide (GNB) and DANA, which provides a mimic for a transition state-like substrate complex”.
With `CC(=O)N[C@H]1[C@H]([C@H](O)[C@H](O)CO)OC(C(=O)O)=C[C@@H]1O` [DANA, N-Acetyl-2,3-dehydro-2-deoxyneuraminic acid], the IC50 on AmGH33B, against AmGH33A and at AmGH181 [2] was less than 200 µM throughout.
